Measured values reported in the NIST ThermoML archive (doi:10.1021/je700029q).
± gives the expanded uncertainty stated by the source.

Key:
[1] = 101 kPa, Liquid
[2] = refractive index (Na D-line) (dimensionless); conditions: 298.15 K; 101.33 kPa; Liquid

mass density ([1]; 298.15 K): 780.7 ± 0.9 kg/m3 | speed of sound ([1]; 298.15 K): 1138 ± 5 m/s | viscosity ([1]; 298.15 K): 2.082 ± 0.049 mPa·s | mass density ([1]; 313.15 K): 767.8 ± 1 kg/m3 | speed of sound ([1]; 313.15 K): 1085 ± 5 m/s | viscosity ([1]; 313.15 K): 1.354 ± 0.036 mPa·s | mass density ([1]; 328.15 K): 753.9 ± 1 kg/m3 | speed of sound ([1]; 328.15 K): 1031 ± 5 m/s | viscosity ([1]; 328.15 K): 0.919 ± 0.03 mPa·s | refractive index [2]: 1.37495 ± 0.00086
SMILES: CC(C)O [propan-2-ol]
